Results reported in patent US10588893B2, “Ointment containing an oxazole compound” (OTSUKA PHARMACEUTICAL CO., LTD., priority 2015, dated 2020).

Key:
[1] = Miscibility of compound (11) solvent solution with petrolatum; assay type: physicochemical
Text: (§1) To select a solvent for dissolving compound (11) in preparing an ointment containing compound (11), the solubility of compound (11) in various solvents was studied. […] Such a case may result in precipitation of compound (11). Thus, a solvent that has a high solubility of compound (11) but that has […] miscibility (compatibility) with petrolatum or paraffin is relatively preferable for use.

[2] = Solubility of compound (11) in various solvents; assay type: physicochemical
Text: as §1

Miscibility of Compound (11) Solvent Solution with Petrolatum ([1]; solvent: Decyl oleate): Miscible
Miscibility of Compound (11) Solvent Solution with Petrolatum ([1]; solvent: Diethyl sebacate): Miscible
Miscibility of Compound (11) Solvent Solution with Petrolatum ([1]; solvent: Diisopropyl adipate): Miscible
Miscibility of Compound (11) Solvent Solution with Petrolatum ([1]; solvent: Hexyldodecanol): Miscible
Miscibility of Compound (11) Solvent Solution with Petrolatum ([1]; solvent: Isopropyl myristate): Miscible
Miscibility of Compound (11) Solvent Solution with Petrolatum ([1]; solvent: Isostearic acid): Miscible
Miscibility of Compound (11) Solvent Solution with Petrolatum ([1]; solvent: Isostearyl alcohol): Miscible
Miscibility of Compound (11) Solvent Solution with Petrolatum ([1]; solvent: Liquid Paraffin): Miscible
Miscibility of Compound (11) Solvent Solution with Petrolatum ([1]; solvent: Olive oil): Miscible
Miscibility of Compound (11) Solvent Solution with Petrolatum ([1]; solvent: Propylene carbonate): Immiscible
Miscibility of Compound (11) Solvent Solution with Petrolatum ([1]; solvent: Triacetine): Immiscible
solubility of compound (11), in words ([2]; in triacetin and propylene carbonate): relatively high
Solubility (W/W %) ([2]; solvent: Decyl oleate): 2.6 W/W %
Solubility (W/W %) ([2]; solvent: Diethyl sebacate): 42.6 W/W %
Solubility (W/W %) ([2]; solvent: Diisopropyl adipate): 40.3 W/W %
Solubility (W/W %) ([2]; solvent: Hexyldodecanol): 5.4 W/W %
Solubility (W/W %) ([2]; solvent: Isopropyl myristate): 6.0 W/W %
Solubility (W/W %) ([2]; solvent: Isostearic acid): 19.8 W/W %
Solubility (W/W %) ([2]; solvent: Isostearyl alcohol): 5.1 W/W %
Solubility (W/W %) ([2]; solvent: Liquid Paraffin): 0.1 W/W %
Solubility (W/W %) ([2]; solvent: Olive oil): 6.1 W/W %
Solubility (W/W %) ([2]; solvent: Propylene carbonate): 56.9 W/W %
Solubility (W/W %) ([2]; solvent: Triacetine): 32.5 W/W %
Structure (SMILES): CCOc1ccccc1C(=O)NCc1coc(-c2ccc(OC(F)F)c(OC(C)C)c2)n1 [Compound (11)]
